According to EP2406206B1, “TETRAHYDRONAPHTHALEN-2-OL DERIVATIVES” (MSD Oss B.V., priority 2009, dated 2010):

Key:
[1] = target: human estrogen receptor β receptor (hERβ) (Homo sapiens, UniProt Q92731); assay: ERβ transactivation bioassay in recombinant CHO cells (rat oxytocin promoter, luciferase reporter); format: cell-based; conditions: for ERβ/ERα ratio: ERβ agonistic selectivity over ERα, transactivation data; for EC50: transactivation of luciferase via hERβ in CHO cells, read-out: ERβ agonistic EC50; for ERβ eudismic ratio: ratio of the activities of the eutomer and the distomer on ERβ
Chain of human estrogen receptor β receptor (hERβ) (Q92731 whole entry): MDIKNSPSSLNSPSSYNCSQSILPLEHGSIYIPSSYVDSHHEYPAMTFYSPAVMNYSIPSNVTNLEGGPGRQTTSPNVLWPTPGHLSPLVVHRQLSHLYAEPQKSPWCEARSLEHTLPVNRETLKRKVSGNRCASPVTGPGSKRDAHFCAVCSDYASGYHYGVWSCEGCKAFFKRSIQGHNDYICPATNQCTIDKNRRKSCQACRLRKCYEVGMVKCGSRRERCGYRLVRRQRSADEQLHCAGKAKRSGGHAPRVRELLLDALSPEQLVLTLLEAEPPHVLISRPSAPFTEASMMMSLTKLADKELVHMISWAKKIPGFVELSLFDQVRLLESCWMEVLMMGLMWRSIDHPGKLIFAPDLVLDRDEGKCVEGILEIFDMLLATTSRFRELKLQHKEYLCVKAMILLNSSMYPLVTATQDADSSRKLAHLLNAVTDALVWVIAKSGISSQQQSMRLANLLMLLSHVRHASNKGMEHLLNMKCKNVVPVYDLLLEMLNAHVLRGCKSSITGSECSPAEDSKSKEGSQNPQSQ
Experimental: (§1) The estrogenic and antiestrogenic activity of compounds was determined in an in vitro bioassay with recombinant Chinese hamster ovary (CHO) cells stably co-transfected with the human estrogen receptor α (hERα) or β receptor (hERβ), the rat oxytocin promoter (RO) and the luciferase reporter gene (LUC). The estrogenic activity of a test compound to stimulate the transactivation of the enzyme luciferase mediated via the estrogen receptors hERα or hERβ is expressed in nM. The assay was performed as described by De Gooyer et al., Steroids 68 (2003), 21-30. Table 7. ERβ and ERα transactivation data

[2] = metabolic stability in human hepatocytes; format: in vitro ADME; conditions: cryopreserved human hepatocytes in suspension, tetrahydronaphthalen-2-ol, 37°C, sampled 0-120 min, LC-MS/MS, read-out: Human hepatocyte T1/2
Experimental: A number of compounds 9, 11 and 12 were tested on metabolic stability in human hepatocytes. The hepatic stability was compared to corresponding chroman compounds 25, 26 or 27 (see structures below).
Test compounds were diluted to 3 µM in incubation medium. Then 40 µl of the 3 µM test compounds was pipetted into a 96 well microtiter plate (flat bottom). Hepatocytes (stored at -140 °C) were thawed in a 37°C water bath. The cells were resuspended into pre-warmed thawing medium and were centrifuged for 5 minutes at 50g at room temperature. The supernatant was discarded and the remaining cell pellet was resuspended in warm incubation medium and diluted to 7.5 E5 cells/ml. Then 80 µl of the cell suspension was added to each well of the 96 well microtiter plate containing the test compounds. The resulting mixture was incubated at 37°C and was sampled at t=0, 5, 30, 60, and 120 min. The samples were analyzed by LC-MS/MS to determine the content of unchanged test compound. Based on the rate of reduction of the content of test compound over time, the half-live (T1/2) was calculated. Metabolic stability in human hepatocytes

[3] = target: T1, human estrogen receptor α (hERα) (Homo sapiens, UniProt P03372); assay: ERα transactivation bioassay in recombinant CHO cells (rat oxytocin promoter, luciferase reporter); format: cell-based; conditions: ratio of the activities of the eutomer and the distomer on ERα
T1 sequence (P03372 1-595): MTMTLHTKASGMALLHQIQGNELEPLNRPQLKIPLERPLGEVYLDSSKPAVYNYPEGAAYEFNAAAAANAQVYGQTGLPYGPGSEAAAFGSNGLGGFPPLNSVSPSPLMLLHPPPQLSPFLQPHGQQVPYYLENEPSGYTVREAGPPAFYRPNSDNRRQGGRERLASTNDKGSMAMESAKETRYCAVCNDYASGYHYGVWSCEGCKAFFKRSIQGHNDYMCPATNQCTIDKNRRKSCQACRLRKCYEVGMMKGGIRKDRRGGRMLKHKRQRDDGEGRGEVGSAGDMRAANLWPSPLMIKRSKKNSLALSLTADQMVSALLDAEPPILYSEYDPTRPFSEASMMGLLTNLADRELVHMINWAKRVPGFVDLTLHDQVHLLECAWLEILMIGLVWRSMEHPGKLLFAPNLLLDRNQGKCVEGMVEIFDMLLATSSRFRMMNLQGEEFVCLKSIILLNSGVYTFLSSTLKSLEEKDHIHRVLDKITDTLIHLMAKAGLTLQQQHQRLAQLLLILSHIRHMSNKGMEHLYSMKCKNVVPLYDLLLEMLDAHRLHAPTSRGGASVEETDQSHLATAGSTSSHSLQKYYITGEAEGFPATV
Experimental: as §1

ERβ/ERα ratio [1] | EC50 [1] | half-life at 1 µM [2] | ERβ eudismic ratio [1] | ERα eudismic ratio [3] | Structure (SMILES)
21 | 1.2 nM | – | 13 | >4 | C[C@H]1[C@@H](c2ccc(O)cc2)Cc2ccc(O)cc2[C@H]1Cc1cccc(F)c1 (single isomer, unassigned) [Compound 11f]
19 | 1.4 nM | – | 9 | >4 | C[C@H]1[C@@H](c2ccc(O)cc2)Cc2ccc(O)cc2[C@H]1Cc1ccc(F)cc1 (single isomer, unassigned) [Compound 11g]
>213 | 0.47 nM | – | >212 | – | C[C@H]1[C@@H](c2ccc(O)cc2)Cc2ccc(O)cc2[C@H]1Cc1c(F)cccc1F (single isomer, unassigned) [Compound 11i]
>714 | 0.14 nM | 0.49 h | 143 | – | C[C@H]1[C@@H](c2ccc(O)cc2)Cc2ccc(O)cc2[C@H]1Cc1ccccc1C#N (single isomer, unassigned) [Compound 11j]
61 | 0.36 nM | – | 42 | 0.4 | CC[C@H]1[C@@H](c2ccc(O)cc2)Cc2ccc(O)cc2[C@H]1Cc1ccc(F)cc1 (single isomer, unassigned) [Compound 11w]
– | – | 1.11 h | – | – | C[C@@H]1[C@H](c2ccc(O)cc2)Cc2ccc(O)cc2[C@@H]1Cc1ccccc1F (single isomer, unassigned) [Compound 12a]
– | – | 1.12 h | – | – | C[C@@H]1[C@H](c2ccc(O)cc2)Cc2ccc(O)cc2[C@@H]1Cc1c(F)cccc1F (single isomer, unassigned) [Compound 12i]

Continued, compound first:

Structure (SMILES) | ERβ/ERα ratio [1] | EC50 [1] | half-life at 1 µM [2] | ERβ eudismic ratio [1] | ERα eudismic ratio [3]
CC1C(c2ccc(O)cc2)Cc2ccc(O)cc2C1Cc1ccccc1F (racemic) [Compound 9a, 8-(2-fluorobenzyl)-6-(4-hydroxyphenyl)-7-methyl-5,6,7,8-tetrahydronaphthalen-2-ol] | 193 | 0.45 nM | – | – | –
CCC1C(c2ccc(O)cc2)Cc2ccc(O)cc2C1Cc1ccccc1F (racemic) [Compound 9b, 8-(2-fluorobenzyl)-6-(4-hydroxyphenyl)-7-ethyl-5,6,7,8-tetrahydronaphthalen-2-ol] | 77 | 0.35 nM | 1.17 h | – | –
CCCC1C(c2ccc(O)cc2)Cc2ccc(O)cc2C1Cc1ccccc1F (racemic) [Compound 9c, 8-(2-fluorobenzyl)-6-(4-hydroxyphenyl)-7-propyl-5,6,7,8-tetrahydronaphthalen-2-ol] | 33 | 0.4 nM | – | – | –
CC1C(c2ccc(O)cc2)Cc2ccc(O)cc2C1Cc1ccccc1 (racemic) [Compound 9d, 8-benzyl-6-(4-hydroxyphenyl)-7-methyl-5,6,7,8-tetrahydronaphthalen-2-ol] | 51 | 0.68 nM | – | – | –
CCC1C(c2ccc(O)cc2)Cc2ccc(O)cc2C1Cc1ccccc1 (racemic) [Compound 9e, 8-benzyl-7-ethyl-6-(4-hydroxyphenyl)-5,6,7,8-tetrahydronaphthalen-2-ol] | 18 | 0.42 nM | – | – | –
CC1C(c2ccc(O)cc2)Cc2ccc(O)cc2C1Cc1cccc(F)c1 (racemic) [Compound 9f, 8-(3-fluorobenzyl)-6-(4-hydroxyphenyl)-7-methyl-5,6,7,8-tetrahydronaphthalen-2-ol] | >33 | 3 nM | – | – | –
CC1C(c2ccc(O)cc2)Cc2ccc(O)cc2C1Cc1ccc(F)cc1 (racemic) [Compound 9g, 8-(4-fluorobenzyl)-6-(4-hydroxyphenyl)-7-methyl-5,6,7,8-tetrahydronaphthalen-2-ol] | >43 | 2.3 nM | – | – | –
CC1C(c2ccc(O)cc2)Cc2ccc(O)cc2C1Cc1cc(F)ccc1F (racemic) [Compound 9h, 8-(2,5-difluorobenzyl)-6-(4-hydroxyphenyl)-7-methyl-5,6,7,8-tetrahydronaphthalen-2-ol] | >167 | 0.6 nM | – | – | –
CC1C(c2ccc(O)cc2)Cc2ccc(O)cc2C1Cc1c(F)cccc1F (racemic) [Compound 9i, 8-(2,6-difluorobenzyl)-6-(4-hydroxyphenyl)-7-methyl-5,6,7,8-tetrahydronaphthalen-2-ol] | >102 | 0.98 nM | – | – | –
CC1C(c2ccc(O)cc2)Cc2ccc(O)cc2C1Cc1ccccc1C#N (racemic) [Compound 9j, 2-((7-hydroxy-3-(4-hydroxyphenyl)-2-methyl-1,2,3,4-tetrahydronaphthalen-1-yl)methyl)benzonitrile] | 605 | 0.56 nM | 0.623 h | – | –
CCC1C(c2ccc(O)cc2)Cc2ccc(O)cc2C1Cc1ccccc1C#N (racemic) [Compound 9k, 2-((2-ethyl-7-hydroxy-3-(4-hydroxyphenyl)-1,2,3,4-tetrahydronaphthalen-1-yl)methyl)benzonitrile] | >204 | 0.49 nM | – | – | –
CC1C(c2ccc(O)cc2)Cc2ccc(O)cc2C1Cc1ccccc1Cl (racemic) [Compound 9l, 8-(2-chlorobenzyl)-6-(4-hydroxyphenyl)-7-methyl-5,6,7,8-tetrahydronaphthalen-2-ol] | 339 | 0.33 nM | – | – | –
CCC1C(c2ccc(O)cc2)Cc2ccc(O)cc2C1Cc1ccc(O)cc1 (racemic) [Compound 9m, 7-ethyl-8-(4-hydroxybenzyl)-6-(4-hydroxyphenyl)-5,6,7,8-tetrahydronaphthalen-2-ol] | 2 | 31 nM | – | – | –
CCC1C(c2ccc(O)cc2F)Cc2ccc(O)cc2C1Cc1ccccc1F (racemic) [Compound 9o, 7-ethyl-6-(2-fluoro-4-hydroxyphenyl)-8-(2-fluorobenzyl)-5,6,7,8-tetrahydronaphthalen-2-ol] | 42 | 0.17 nM | 1.22 h | – | –
CC1C(c2ccc(O)cc2F)Cc2ccc(O)cc2C1Cc1ccccc1F (racemic) [Compound 9p, 6-(2-fluoro-4-hydroxyphenyl)-8-(2-fluorobenzyl)-7-methyl-5,6,7,8-tetrahydronaphthalen-2-ol] | >333 | 0.3 nM | > 2 h | – | –
Cc1cc(C2Cc3ccc(O)cc3C(Cc3ccccc3F)C2C)ccc1O (racemic) [Compound 9r, 8-(2-fluorobenzyl)-6-(4-hydroxy-3-methylphenyl)-7-methyl-5,6,7,8-tetrahydronaphthalen-2-ol] | >83 | 1.2 nM | 0.965 h | – | –
CC1C(c2ccc(O)cc2)Cc2ccc(O)c(F)c2C1Cc1ccccc1F (racemic) [Compound 9s, 1-fluoro-8-(2-fluorobenzyl)-5,6,7,8-tetrahydro-6-(4-hydroxyphenyl)-7-methylnaphthalen-2-ol] | >21 | 4.7 nM | 1.61 h | – | –
CCC1C(c2ccc(O)cc2)Cc2ccc(O)cc2C1Cc1ccccc1C (racemic) [Compound 9v, 7-ethyl-6-(4-hydroxyphenyl)-8-(2-methylbenzyl)-5,6,7,8-tetrahydronaphthalen-2-ol] | >63 | 1.6 nM | 1.16 h | – | –
CCC1C(c2ccc(O)cc2)Cc2ccc(O)cc2C1Cc1ccc(F)cc1 (racemic) [Compound 9w, 7-ethyl-8-(4-fluorobenzyl)-6-(4-hydroxyphenyl)-5,6,7,8-tetrahydronaphthalen-2-ol] | 12 | 0.91 nM | – | – | –
CC1C(c2ccc(O)cc2)Cc2ccc(O)c(F)c2C1Cc1c(F)cccc1F (racemic) [Compound 9y, 8-(2,6-difluorobenzyl)-1-fluoro-5,6,7,8-tetrahydro-6-(4-hydroxyphenyl)-7-methyl-naphthalen-2-ol] | >8 | 12 nM | 1.83 h | – | –
COc1ccccc1CC1c2cc(O)ccc2CC(c2ccc(O)cc2)C1C (centres unmarked) [Compound 8n, 6-(4-hydroxyphenyl)-8-(2-methoxybenzyl)-7-methyl-5,6,7,8-tetrahydronaphthalen-2-ol] | >40 | 2.5 nM | – | – | –
